These results are taken from patent publication US10603369B2, “Combination vaccines with lower doses of antigen and/or adjuvant” (GlaxoSmithKline Biologicals SA, priority 2011, dated 2020).

Series [1] can be described thus: Adsorption of TLR agonist to aluminium hydroxide adjuvant. Format: physicochemical.
The next series in a line: physchem. As to conditions: water.

≈ marks a conversion by molar mass, not a printed value.

As to `Cc1ccc2c(c1)nc(N)c1ncc(CCc3ccc(OCCOCCOCCC(F)(F)P(=O)(O)O)cc3C)cc12` [compound T], the “adsorption to aluminium hydroxide” value in series [1] is reported as “adsorbs well”. The solubility in “physchem” is about 4000 µg/mL (≈ 6.78 mM).

As usually defined, the solubility is the dissolved amount per volume that the medium holds. Lower therefore signals little dissolved substance.
